These results are taken from patent US8440637B2, “Combination treatment for the treatment of hepatitis C virus infection” (priority 2007, dated 2013).

For data set [1], the system named is miR-122a. The experiment in a line: miR-122a levels in mouse liver by microRNA specific qPCR. The data set is classed as in vivo. The procedure: Total RNA was extracted from liver samples as described above and analysed for miR-122a levels by microRNA specific QPCR.
In vivo study: Ten groups of animals (female C57/BL6; 3 mice per group) were treated in the following manner. Group 1 animals were injected with 0.2 ml saline by i.p. on day 0, day 2 and day 4. Groups 2-10 were dosed by i.p. with three different conc. (25 mg/kg, 5 mg/kg and 1 mg/kg) of either LNA antimiR-122a/SEQ ID NO: 61 (group 2-4), LNA antimir-122a/SEQ ID NO: 66 (group 5-7) or LNA antimir-122a/SEQ ID NO: 63 (group 8-10); the LNA antimir-122a sequences are given in the Table 1. All three LNA antimiR-122a oligonucleotides target the liver-specific miR-122a. The doses were calculated from the Day 0 body weights of each animal.
The animals were sacrificed 48 hours after last dose (Day 6), retro-orbital blood was collected in tubes containing EDTA and the plasma fraction harvested and stored frozen −80° C. for cholesterol analysis. At sacrifice livers were dissected and one portion was cut into 5 mm cubes and immersed in 5 volumes of ice-cold RNAlater. A second portion was snap frozen in liquid nitrogen and stored for cryo-sectioning.
Total RNA was extracted from liver samples using Trizol reagent according to the manufacturer's recommendations (Invitrogen, USA) and analysed for miR-122a levels by microRNA-specific QPCR according to the manufacturer's recommendations (Ambion, USA). […]
(§1) NMRI female mice were treated with indicated doses of LNA-antimiR (SEQ ID NO: 61) along with a mismatch control (m, SEQ ID NO: 65), saline and antagomir (SPC3595) for three consecutive days and sacrificed 24 hours after last dose (as in example 11 “old design”, n=5). miR-122 levels were analyzed by qPCR and normalized to the saline treated group.
C57BL/6J female mice were fed on high fat diet for 13 weeks before the initiation of the SEQ ID NO: 63 treatment. […] Both hypercholesterolemic and normal mice were treated i.p. twice weekly with 5 mg/kg SEQ ID NO: 63 and the corresponding mismatch control for a study period of 5½ weeks. Blood samples were collected weekly and total plasma cholesterol was measured during the entire course of the study. Upon sacrificing the mice, liver and blood samples were prepared for total RNA extraction, miRNA and mRNA quantification, assessment of the serum transaminase levels, and liver histology.
The miR-122 and let-7a microRNA levels were quantified with TaqMan microRNA Assay (Applied Biosystems) following the manufacturer's instructions. The RT reaction was diluted ten times in water and subsequently used for real time PCR amplification according to the manufacturer's instructions. A two-fold cDNA dilution series from liver total RNA of a saline-treated animal or mock transfected cells cDNA reaction (using 2.5 times more total RNA than in samples) served as standard to ensure a linear range (Ct versus relative copy number) of the amplification. Applied Biosystems 7500 or 7900 real-time PCR instrument was used for amplification.

Data set [2] deals with miR-122a target genes (Bckdk, aldolase A, Nrdg3, CD320, Vldlr). The experiment in a line: miR-122a target mRNA levels in mouse liver by qPCR. The data set is classed as in vivo. The conditions noted are these: for Bckdk and AldoA mRNA levels compared to SEQ ID NO: 61 treated mice (in words) / upregulation of miR-122a target genes Bckdk and AldoA (in words): liver, 48 hours after last dose (Day 6). On the procedure: The saline control and different LNA-antimiR-122a treated animals were sacrificed 48 hours after last dose (Day 6), and total RNA was extracted from liver samples as using Trizol reagent according to the manufacturer's recommendations (Invitrogen, USA). The mRNA levels were assessed by real-time quantitative RT-PCR for two miR-122a target genes, Bckdk (branched chain ketoacid dehydrogenase kinase, ENSMUSG00000030802) and aldolase A (aldoA, ENSMUSG00000030695), respectively, as well as for GAPDH as control, using Taqman assays according to the manufacturer's instructions (Applied biosystems, USA).
NMRI mice were administered intravenously with SEQ ID NO: 61 SEQ ID NO: 61 using daily doses ranging from 2.5 to 25 mg/kg for three consecutive days. Animals were sacrificed 24 hours, 1, 2 or 3 weeks after last dose. Livers were harvested divided into pieces and submerged in RNAlater (Ambion) or snap-frozen. RNA was extracted with Trizol reagent according to the manufacturer's instructions (Invitrogen) from the RNAlater tissue, except that the precipitated RNA was washed in 80% ethanol and not vortexed. The RNA was used for mRNA TaqMan qPCR according to manufacturer (Applied biosystems) or northern blot (see below). The snap-frozen pieces were cryo-sectioned for in situ hybridizations.
Mice were treated with different SEQ ID NO: 61 SEQ ID NO: 61 doses for three consecutive days, as described above and sacrificed 24 hours after last dose. Total RNA extracted from liver was subjected to qPCR. […] Total liver RNA from 2 to 3 mice per group sacrificed 24 hours after last dose were subjected to qPCR for the indicated genes. Shown in FIG. 9 is mRNA levels relative to Saline group, n=2-3 (2.5-12.5 mg/kg/day: n=2, no SD). Shown is also the mismatch control (m, SEQ ID NO: 65).
Assayed genes: Nrdg3 Aldo A, Bckdk, CD320 with predicted miR-122 target site.
NMRI female mice were treated with 25 mg/kg/day SEQ ID NO: 61SEQ ID NO: 61 along with saline control for three consecutive days and sacrificed 1, 2 or 3 weeks after last dose, respectively. RNA was extracted from livers and mRNA levels of predicted miR-122a target mRNAs, selected by microarray data were investigated by qPCR. Three animals from each group were analysed.
mRNA levels are normalized to the individual GAPDH levels and to the mean of the Saline treated group at each individual time point. Included are also the values from the animals sacrificed 24 hours after last dose. Shown is mean and standard deviation, n=3 (24 h n=3)
The same liver RNA samples as in previous example were investigated for Vldlr induction.
as §1
mRNA quantification of selected genes was done using standard Tag Man assays (Applied Biosystems). The reverse transcription reaction was carried out with random decamers, 0.5 μg total RNA, and the M-MLV RT enzyme from Ambion according to a standard protocol. First strand cDNA was subsequently diluted 10 times in nuclease-free water before addition to the RT-PCR reaction mixture. A two-fold cDNA dilution series from liver total RNA of a saline-treated animal or mock transfected cells cDNA reaction (using 2.5 times more total RNA than in samples) served as standard to ensure a linear range (Ct versus relative copy number) of the amplification. Applied Biosystems 7500 or 7900 real-time PCR instrument was used for amplification.
(In general: Quantitative PCR measures a nucleic acid by following its amplification.)

Setting [3] is: i.p. on day 0, 2 and 4 at 25, 5 and 1 mg/kg, 48 hours after last dose.

“Also recorded” adds a separate entry of the source. Strand notation (5' to 3'): a small letter for the sugar, then the base; units joined by * are phosphorothioate-linked, units joined directly phosphodiester-linked; [ ] holds rarer units or linkages, { } end groups; capitals alone tell only the bases. l = locked nucleic acid (LNA); [5mC] = 5-methylcytosine; d = 2'-deoxy (DNA)

As to “5′-AttGTcaCaCtCC-3′ (antisense lA*dT*dT*lG*lT*dC*dA*l[5mC]*dA*l[5mC]*dT*l[5mC]*l[5mC]) [SEQ ID NO: 66]”, the “efficacy in vivo in miR-122a silencing compared to SEQ ID NO: 61 (in words)” value in data set [1] (setting [3]) is given as “significantly improved efficacy in vivo”. In data set [2], the “Bckdk and AldoA mRNA levels compared to SEQ ID NO: 61 treated mice (in words)” value is “significantly higher”; the “upregulation of miR-122a target genes Bckdk and AldoA (in words)” value (from here on “upregulation”) is given as “clear dose-dependent upregulation”.
Consider “5′-CcAttGTcaCaCtCC-3′ (antisense CCATTGTCACACTCC; sugars from the 5' end ldlddllddldldll, backbone and methylation of C not given here) [SEQ ID NO: 63]”, for which the “IC50, miR-122a silencing in liver” value in data set [1] (female C57/BL6, i.p. on day 0, 2 and 4 at 25, 5 and 1 mg/kg, 48 hours after last dose) is on record as about 1 mg/kg. In addition, the “miR-122 levels in liver after long-term treatment (in words)” value in data set [1] (hypercholesterolemic and normal mice, 5 mg/kg i.p. twice weekly for 5½ weeks) is “comparable profile in both hypercholesterolemic and normal mice”. Moreover, the “efficacy in vivo in miR-122a silencing compared to SEQ ID NO: 61 (in words)” value in data set [1] (setting [3]) was “most potent”. In data set [2], the “Bckdk and AldoA mRNA levels compared to SEQ ID NO: 61 treated mice (in words)” value is reported as “significantly higher”; the “upregulation” value was “clear dose-dependent upregulation”.
Take “5′-ccAttGtcAcaCtcCa-3′ (antisense CCATTGTCACACTCCA; sugars from the 5' end ddlddlddlddlddld, backbone and methylation of C not given here) [SEQ ID NO: 61]”: the “miR-122a inhibition (in words)” value in data set [1] (25 mg/kg i.v. on 3 successive days, Day 16) is recorded as “inhibition could still be detected”. For the same substance, in data set [1] (25 mg/kg i.v. on 3 successive days, Day 23), the “miR-122a levels (in words)” value is on record as “approached those of the saline group”. Besides, the “miR-122a inhibition compared to saline control (in words)” value in data set [1] (25 mg/kg i.v. on 3 successive days, sacrifice Day 9, 16 or 23) was “two-fold inhibition”. For the same substance, the “IC50, miR-122a levels in liver” value in data set [1] (i.v. on 3 successive days, 2.5-25 mg/kg, 24 hour after last dose) fell in the range of 3 to 5 mg/kg. Also, the “reduction of miR-122 levels” value in data set [1] (one week after last LNA dose) is listed as 50%. For the same substance, in data set [2] (25 mg/kg/day for three consecutive days, 1, 2 or 3 weeks after last dose), the “Vldlr induction in liver (in words)” value is reported as “transient up-regulation”. In addition, the “mRNA levels of predicted miR-122a target mRNAs over time (in words)” value in data set [2] (NMRI female mice, 25 mg/kg/day for three consecutive days, 1, 2 or 3 weeks after last dose) is “transient induction followed by a restoration of normal expression levels”. Moreover, the “de-repression of miR-122 target mRNAs (AldoA, Bckdk, CD320, Nrdg3) (in words)” value in data set [2] (NMRI female mice, three consecutive days, 24 hours after last dose, compared to antagomir treated mice, listed as LNA-antimiR) is on record as “dose-dependent de-repression; also recorded: consistently higher”. The “induction of miR-122a target genes (Nrdg3, Aldo A, Bckdk, CD320) (in words)” value in data set [2] (different doses for three consecutive days, 24 hours after last dose) is recorded as “clear dose-dependent induction”. The “upregulation” value in data set [2] is “clear dose-dependent upregulation”.
